Tests used:
Assay type in all cases: cell-based
[1] = test system: SDF-1 induced Ca flux in SUP-T1 cells; experiment: Inhibition of chemokine (SDF-1) induced Ca flux measured on a FLIPR; details: Homo sapiens
Procedure: Inhibition of Chemokine Induced Ca Flux Measured on a FLIPR (Molecular Devices) Loading dye: Fluo-3, AM (Molecular Probes F-1241) is dissolved in anhydrous DMSO and stored frozen in aliquots. To increase the solubility of the dye in the loading medium, 10% (w/v) pluronic acid (Molecular Probes F-127) is added to the Fluo-3 stock solution immediately before use. HBSS+20 mM Hepes buffer+0.2% BSA, pH 7.4. HBSS 10× [(w/o phenol red and sodium bicarbonate (Gibco 14 065–049)]; Hepes buffer 1M (Gibco 15 630–056), BSA (Sigma A3675). The flux buffer is vacuum-filtered and stored refrigerated for a maximum of 5 days. Before use in the experiment, the buffer is warmed at 37° C. in a waterbath. The test compounds were diluted in flux buffer to the desired concentration and added to 4 wells of a black microplate (4 parallel measurements per compound). The following control wells were used: 100% response control (no inhibition), flux buffer was added; 100% inhibition control: chemokine was added at 5-times the concentration required to induce a Ca flux. The chemokines are diluted in flux buffer to concentrations that are 4-fold higher than the desired concentrations required for stimulation of the cells (i.e. 2.5 nM for SDF-1[…] and 0.6 nM for RANTES). The chemokines were added to untreated 96-well Sero well compound plates (International Medical, Sterilin code 611F96). In the negative control well's (baseline monitoring), flux buffer is added instead of chemokine. As a positive control to check for dye loading efficiency, 20 μM digitonin (final concentration) was also included. The agonist plate was incubated in the FLIPR (37° C.) for 15–30 min. Cell Loading Protocol for Measuring Inhibition of SDF-1[…] Induced Ca Flux in SUP-T1 Cells. SUP-T1 cells were centrifuged at room temperature (RT) and re-suspended in loading medium (RPMI-1640 containing 2% FBS and 4 μM Fluo-3, AM). The cells were incubate at room temperature for 45 min. then washed twice in flux buffer then incubated in flux buffer at room temperature for 10 min. The cells were centrifuged and re-suspended in flux buffer at a density of 3×10^6 cells per mL. A 100 uL aliquot of the cell suspension (3×10^5 cells) was added to each well of a black microplate (Costar 3603), which already contains 50 uL of a solution of the test compound (at concentrations that are 3-fold higher than the desired final compound concentrations). The microplate is then gently centrifuged at room temperature. Homogeneous spreading of the cells on the bottom of the microplate wells was then confirmed with a microscope and the microplate was incubated in the FLIPR (37° C.) for 10 min. prior to testing. Fluorescence Measurements as a Function of Time on the FLIPR The FLIPR settings (camera exposure time and laser power) are adjusted to obtain initial fluorescence values between 8,000 and 10,000 units. After monitoring a 20 second-baseline, the agonist (chemokine) (50 uL) is added by automatic pipettor with black pipette tips. Fluorescence is measured simultaneously in all wells of the microplate every 2 seconds (first 2 min) and thereafter every 6 seconds (additional 2 min). The average ca-flux measured in each set of 4 identical wells (one test compound) was calculated by the FLIPR software.

[2] = test system: HIV-1 NL4.3 or IIIB; experiment: Inhibition of HIV-1 (NL4.3 or IIIB, CXCR4 using) replication in MT-4 cells, MTT viability; details: Human immunodeficiency virus 1, IIIB, MT4, concentration protecting 50% of virus-infected cells against viral cytopathicity
Procedure: Assay for Inhibition of HIV-1 (NL4.3) Replication in MT-4 Cells Inhibition of HIV-1 NL4.3 (or IIIB, CXCR4 using) replication assays were performed as previously described (Bridger et al. J. Med. Chem. 1999, 42, 3971-3981; De […] et al. Proc. Natl. Acad. Sci, 1992, 89, 5286-5290; De […] et al. Antimicrob. Agents Chemother. 1994, 38, 668-674; Bridger et al. J. Med. Chem. 1995, 38, 366-378; Schols et al. J. Exp. Med., 1997, 186, 1383-1388). Anti-HIV activity and cytotoxicity measurements were carried out in parallel. They were based on the viability of MT-4 cells that had been infected with HIV in the presence of various concentrations of the test compounds. After the MT-4 cells were allowed to proliferate for 5 days, the number of viable cells was quantified by a tetrazolium-based colorimetric 3-(4,5-dimethylthiazol-2-yl)-2,5-diphenyltetrazolium bromide (MTT) procedure in 96-well microtrays. In all of these assays, viral input (viral multiplicity of infection, MOI) was 0.01, or 100 times the 50% cell culture infective dose (CCID50). The EC50 was defined as the concentration required to protect 50% of the virus-infected cells against viral cytopathicity.

[3] = test system: HIV-1 BaL; experiment: Inhibition of HIV-1 BaL (CCR5 using) replication in PHA-stimulated PBMC's, viral p24 antigen expression; details: Human immunodeficiency virus 1, BAL

Structure (SMILES)	inhibition at 20 µg/mL [1] [%]	EC50 [2] [µg/mL]	EC50 [3] [µg/mL]
FC(F)(F)c1ccc2nc(CN(Cc3ccc(CNCc4ccccn4)cc3)C3CCCc4cccnc43)[nH]c2c1 (stereo not drawn) [Example 1, N-(2-pyridinylmethyl)-N′-(5-trifluoromethyl-1-H-benzimidazol-2-ylmethyl)-N′-(5,6,7,8-tetrahydro-8-quinolinyl)-1,4-benzenedimethanamine]	> 20	< 20	< 20
Cc1cc2nc(CN(Cc3ccc(CNCc4ccccn4)cc3)C3CCCc4cccnc43)[nH]c2cc1C (stereo not drawn) [Example 2, N-(2-pyridinylmethyl)-N′-(5,6-dimethyl-1-H-benzimidazol-2-ylmethyl)-N′-(5,6,7,8-tetrahydro-8-quinolinyl)-1,4-benzenedimethanamine]	> 20	< 20	< 20
COc1cccc2[nH]c(CN(Cc3ccc(CNCc4ccccn4)cc3)C3CCCc4cccnc43)nc12 (stereo not drawn) [Example 13, N-(2-pyridinylmethyl)-N′-[4-methoxy-1H-benzimidazol-2-ylmethyl]-N′-(5,6,7,8-tetrahydro-8-quinolinyl)-1,4-benzenedimethanamine]	> 20	< 20	< 20
c1ccc(-c2cccc3nc(CN(Cc4ccc(CNCc5ccccn5)cc4)C4CCCc5cccnc54)[nH]c23)cc1 (stereo not drawn) [Example 14, N-(2-pyridinylmethyl)-N′-[4-phenyl-1H-benzimidazol-2-ylmethyl]-N′-(5,6,7,8-tetrahydro-8-quinolinyl)-1,4-benzenedimethanamine]	> 20	< 20	< 20
c1ccc(-c2cnc(CN(Cc3ccc(CNCc4ccccn4)cc3)C3CCCc4cccnc43)[nH]2)cc1 (stereo not drawn) [Example 25, N-(2-pyridinylmethyl)-N′-(4-Phenyl-1H-imidazol-2-ylmethyl)-N′-(5,6,7,8-tetrahydro-8-quinolinyl)-1,4-benzenedimethanamine]	> 20	< 20	< 20
O=[N+]([O-])c1ccc(-c2cnc(CN(Cc3ccc(CNCc4ccccn4)cc3)C3CCCc4cccnc43)[nH]2)cc1 (stereo not drawn) [Example 27, N-(2-pyridinylmethyl)-N′-[4-(4-nitrophenyl)-1H-imidazol-2-ylmethyl]-N′-(5,6,7,8-tetrahydro-8-quinolinyl)-1,4-benzenedimethanamine]	> 20	< 20	< 20
Cc1nc(CN(Cc2ccc(CNCc3ccccn3)cc2)C2CCCc3cccnc32)[nH]c1-c1ccccc1 (stereo not drawn) [Example 28, N-(2-Pyridinylmethyl)-N′-(4-methyl-5-phenyl-1H-imidazol-2-ylmethyl)-N′-(5,6,7,8-tetrahydro-8-quinolinyl)-1,4-benzenedimethanamine]	> 20	< 20	< 20
CC(C)(C)c1cnc(CN(Cc2ccc(CNCc3ccccn3)cc2)C2CCCc3cccnc32)[nH]1 (stereo not drawn) [Example 29, N-(2-Pyridinylmethyl)-N′-(5-tert-butyl-1H-imidazol-2-ylmethyl)-N′-(5,6,7,8-tetrahydro-8-quinolinyl)-1,4-benzenedimethanamine]	> 20	< 20	< 20
COc1cccc(-c2cnc(CN(Cc3ccc(CNCc4ccccn4)cc3)C3CCCc4cccnc43)[nH]2)c1 (stereo not drawn) [Example 30, N-(2-Pyridinylmethyl)-N′-[5-(3-methoxyphenyl)-1H-imidazol-2-ylmethyl]-N′-(5,6,7,8-tetrahydro-8-quinolinyl)-1,4-benzenedimethanamine]	> 20	< 20	< 20
FC(F)(F)c1c[nH]c(CN(Cc2ccc(CNCc3ccccn3)cc2)C2CCCc3cccnc32)n1 (stereo not drawn) [Example 35, N-(2-pyridinylmethyl)-N′-(4-trifluormethyl-1H-imidazol-2-ylmethyl)-N′-(5,6,7,8-tetrahydro-8-quinolinyl)-1,4-benzenedimethanamine]	> 20	< 20	< 20
CCCCc1ccc(CNCc2ccc(CN(Cc3nc4ccccc4[nH]3)C3CCCc4cccnc43)cc2)nc1 (stereo not drawn) [Example 54, N-(5-butyl-2-pyridinylmethyl)-N′-(1H-benzimidazol-2-ylmethyl)-N′-(5,6,7,8-tetrahydro-8-quinolinyl)-1,4-benzenedimethanamine]	> 20	< 20	< 20
Oc1cccnc1CNCc1ccc(CN(Cc2nc3ccccc3[nH]2)C2CCCc3cccnc32)cc1 (stereo not drawn) [Example 55, N-(3-hydroxy-2-pyridinylmethyl)-N′-(1H-benzimidazol-2-ylmethyl)-N′-(5,6,7,8-tetrahydro-8-quinolinyl)-1,4-benzenedimethanamine]	> 20	< 20	< 20
Cc1cc(C)nc(CNCc2ccc(CN(Cc3nc4ccccc4[nH]3)C3CCCc4cccnc43)cc2)c1 (stereo not drawn) [Example 61, N-(4,6-dimethyl-2-pyridinylmethyl)-N′-(1H-benzimidazol-2-ylmethyl)-N′-(5,6,7,8-tetrahydro-8-quinolinyl)-1,4-benzenedimethanamine]	> 20	< 20	< 20
Cc1cc(CNCc2ccc(CN(Cc3nc4ccccc4[nH]3)C3CCCc4cccnc43)cc2)cc(C)n1 (stereo not drawn) [Example 62, N-(2,6-dimethyl-4-pyridinylmethyl)-N′-(1H-benzimidazol-2-ylmethyl)-N′-(5,6,7,8-tetrahydro-8-quinolinyl)-1,4-benzenedimethanamine]	> 20	< 20	< 20
c1cnc2c(c1)CCCC2N(Cc1ccc(CNCc2cc3ccccc3cn2)cc1)Cc1nc2ccccc2[nH]1 (stereo not drawn) [Example 63, N-(3-isoquinolinylmethyl)-N′-(1H-benzimidazol-2-ylmethyl)-N′-(5,6,7,8-tetrahydro-8-quinolinyl)-1,4-benzenedimethanamine]	> 20	< 20	< 20
COc1cc(CNCc2ccc(CN(Cc3nc4ccccc4[nH]3)C3CCCc4cccnc43)cc2)nc2ccccc12 (stereo not drawn) [Example 64, N-(4-methoxy-2-quinolinylmethyl)-N′-(1H-benzimidazol-2-ylmethyl)-N′-(5,6,7,8-tetrahydro-8-quinolinyl)-1,4-benzenedimethanamine]	> 20	< 20	< 20
CC(NCc1ccc(CN(Cc2nc3ccccc3[nH]2)C2CCCc3cccnc32)cc1)c1ccccn1 (stereo not drawn) [Example 66, N-[1-(2-pyridinyl)eth-1-yl]-N′-(1H-benzimidazol-2-ylmethyl)-N′-(5,6,7,8-tetrahydro-8-quinolinyl)-1,4-benzenedimethanamine]	> 20	< 20	< 20
c1ccc(CNCc2ccc(CN(CCNCc3nc4ccccc4[nH]3)C3CCCc4cccnc43)cc2)nc1 (stereo not drawn) [Example 67, N-(2-pyridinylmethyl)-N′-[2-[(1H-benzimidazol-2-ylmethyl)amino]ethyl]-N′-(5,6,7,8-tetrahydro-8-quinolinyl)-1,4-benzenedimethanamine]	> 20	< 20	< 20
